Entries after “also recorded” stand apart in the source; their conditions may differ.

The subject of one assay is isolated, perfused heart. Put plainly: Isolated perfused rat heart: cardioplegic arrest, cold ischemia and re-perfusion, hemodynamic and metabolic evaluation (P-31 MRS, biochemistry). The settings on record: L-arginine added versus without. The procedure:
The hearts are removed from male Sprague Dawley rats of 350 to 375 g and anaesthetised by intraperitoneal injection of pentobarbital. The hearts are then perfused following the isovolumic contracting heart model. In this model, the heart is perfused with Krebs-Henseleit buffer at 37° C., without phosphate, in a retrograde manner via the aorta, at a constant pressure of 100 mmHg An incompressible balloon, placed in the left ventricle makes the contraction isovolumic. This model makes it possible to evaluate the cardiac function, by the developed pressure and to measure the compliance by measurement of the diastolic pressure. […]
The signals observed in the RMN spectrum of the P-31 are those of inorganic phosphate, phosphocreatine and the 3 phosphorous molecules of ATP. […] The areas and the positions of resonance are determined by using the NMR1 program (New Methods Research Syracuse, N.Y.) on an IBM Risc System 6000 operating system.
The areas measured are corrected by taking into consideration the saturation factors determined by comparing the acquired spectrums to completely relaxed spectrums. The areas of different metabolites can thus be converted into concentrations by referring to the ATPβ area, taking into consideration a cytosolic concentration of 11.6 mM for the ATP (determined by high pressure liquid chromatography). […]

The subject of a further assay is transplanted heart. In words: Heterotopic transplant of rat heart, 3 hours of ischemia, function and energy metabolism after 1 hour and 24 hours of re-perfusion. It counts as in vivo. The settings on record: with versus without arginine, after 1 hour and after 24 hours of re-perfusion; first results. The procedure:
FIG. 20 represents, within the framework of a protocol corresponding to 3 hours of ischemia with arrest and preservation in CRMBM solution, the ratios of different energy metabolites after 1 hour of re-perfusion (represented by the white histogram marked with black lines) and 24 hours of re-perfusion (represented by the histogram with white and black hatching).
The cardiac function, as represented by the derivative of developed pressure (dP/dtmax), is indicated by the black histogram without arginine, and by the histogram with white and black hatching with arginine.
A heterotopic transplant of rat heart model has been developed, working where the function and the metabolism can be simultaneously analysed. In this model the functional and metabolic recovery has thus been studied after 1 hour and 24 hours of re-perfusion after ischemia of 3 hours, protected by the invention solution.
The study has made it possible to analyse the long term recovery of the heart, comparing 1 hour and 24 hours of re-perfusion.

Consider `N=C(N)NCCC[C@H](N)C(=O)O` [L-arginine], for which the “content in adenylic nucleotides” value in the assay with isolated, perfused heart (8 hours of ischemia and re-perfusion, HPLC) is listed as “without however affecting”. In addition, the “pool of amino acids during re-perfusion” value with isolated, perfused heart (protocol 3: 8 hours of ischemia, HPLC in frozen hearts) is on record as “greater pool of amino acids; also recorded: limits the depletion”. The “functional recovery of the heart, effect of L-arginine” value with transplanted heart is given as “beneficial effect”.
